Measured values: PubChem BioAssay AID330 (DTP/NCI, 2004)
“And” between values parts separate entries of the source, which are not always exact repeats. Identical values can stand only once. Inconclusive results and toxic doses are left out. The calls were made as follows: active = survival T/C of 150% or more; inactive = T/C below 125% in these data.

Test system: P388 leukemia ip, CD2F1 mice, survival T/C
Assay: NCI In Vivo Anticancer Drug Screen. Data for tumor model P388 Leukemia (intraperitoneal) in CD2F1 (CDF1) mice
Conditions: endpoint: median survival time, higher = longer survival
Method in brief: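 Mice carrying the transplanted tumor received test compound or vehicle. Survival was recorded in each group, and the value is the treated-group measurement divided by that of the vehicle-treated control group.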

[1] = dose: 50.0 mg/kg/injection, schedule: Q01DX005 (ip), vehicle: saline with Tween-80
[2] = dose: 100.0 mg/kg/injection, schedule: Q01DX005 (ip), vehicle: saline with Tween-80
[3] = dose: 200.0 mg/kg/injection, schedule: Q01DX005 (ip), vehicle: saline with Tween-80
[4] = dose: 50.0 mg/kg/injection, schedule: Q01DX009 (ip), vehicle: Klucel (hydroxypropylcellulose) (HPC)
[5] = dose: 100.0 mg/kg/injection, schedule: Q01DX009 (ip), vehicle: Klucel (hydroxypropylcellulose) (HPC)
[6] = dose: 200.0 mg/kg/injection, schedule: Q01DX009 (ip), vehicle: Klucel (hydroxypropylcellulose) (HPC)
[7] = dose: 12.5 mg/kg/injection, schedule: Q01DX005 (ip), vehicle: Klucel (hydroxypropylcellulose) (HPC)
[8] = dose: 25.0 mg/kg/injection, schedule: Q01DX005 (ip), vehicle: Klucel (hydroxypropylcellulose) (HPC)
[9] = dose: 50.0 mg/kg/injection, schedule: Q01DX005 (ip), vehicle: Klucel (hydroxypropylcellulose) (HPC)
[10] = dose: 100.0 mg/kg/injection, schedule: Q01DX005 (ip), vehicle: Klucel (hydroxypropylcellulose) (HPC)
[11] = dose: 200.0 mg/kg/injection, schedule: Q01DX005 (ip), vehicle: Klucel (hydroxypropylcellulose) (HPC)
[12] = dose: 50.0 mg/kg/injection, schedule: Q04DX003 (ip), vehicle: saline
[13] = dose: 60.0 mg/kg/injection, schedule: Q01DX005 (ip), vehicle: saline with Tween-80
[14] = dose: 120.0 mg/kg/injection, schedule: Q01DX005 (ip), vehicle: saline with Tween-80
[15] = dose: 240.0 mg/kg/injection, schedule: Q01DX005 (ip), vehicle: saline with Tween-80
[16] = dose: 50.0 mg/kg/injection, schedule: Q01DX009 (ip), vehicle: saline with Tween-80
[17] = dose: 100.0 mg/kg/injection, schedule: Q01DX009 (ip), vehicle: saline with Tween-80
[18] = dose: 200.0 mg/kg/injection, schedule: Q01DX009 (ip), vehicle: saline with Tween-80
[19] = dose: 100.0 mg/kg/injection, schedule: Q04DX003 (ip), vehicle: saline with Tween-80
[20] = dose: 200.0 mg/kg/injection, schedule: Q04DX003 (ip), vehicle: saline with Tween-80
[21] = dose: 400.0 mg/kg/injection, schedule: Q04DX003 (ip), vehicle: saline with Tween-80

Measured: T/C

O=C1NC(O)c2cccc(Cl)c2O1 (centres undefined)
inactive: [1] 102 % of control | [2] 102 % of control | [3] 107 % of control

O=C(NNC1=NCCN1Cc1ccccc1)c1cccc(Cl)c1
inactive: [4] 100 % of control | [5] 100 % of control | [6] 100 % of control

c1cc[c]([GeH][c]2ccccc2)cc1.c1cc[c]([GeH][c]2ccccc2)cc1
inactive: [7] 101 % of control | [8] 97 % of control | [9] 100 % of control and 101 % of control | [10] 99 % of control | [11] 100 % of control

O=C1C(=O)N(c2ccccc2Cl)C(=O)N1Cc1ccccc1
inactive: [4] 95 % of control | [5] 98 % of control | [6] 91 % of control

CCN(CC)C(=O)c1cc(=O)c(C)c2oc3c(C)c(O)c(N)c(C(=O)N(CC)CC)c3nc1-2
inactive: dose: 60.0 mg/kg/injection, schedule: Q01DX005 (ip), vehicle: Klucel (hydroxypropylcellulose) (HPC) 92 % of control | dose: 120.0 mg/kg/injection, schedule: Q01DX005 (ip), vehicle: Klucel (hydroxypropylcellulose) (HPC) 87 % of control | dose: 240.0 mg/kg/injection, schedule: Q01DX005 (ip), vehicle: Klucel (hydroxypropylcellulose) (HPC) 86 % of control

O=c1c(Br)c(Cl)nc2ccccn12
inactive: dose: 100.0 mg/kg/injection, schedule: Q01DX001 (ip), vehicle: saline with Tween-80 90 % of control | dose: 200.0 mg/kg/injection, schedule: Q01DX001 (ip), vehicle: saline with Tween-80 100 % of control | dose: 400.0 mg/kg/injection, schedule: Q01DX001 (ip), vehicle: saline with Tween-80 95 % of control

C=C(CCCC(C)(C)OCOCCOC)[Si](C)(C)C
inactive: [1] 101 % of control | [2] 100 % of control | [3] 102 % of control

O=C(CCCCl)CC(O)(C(F)(F)Cl)C(F)(F)Cl
inactive: dose: 25.0 mg/kg/injection, schedule: Q04DX003 (ip), vehicle: saline 100 % of control | [12] 100 % of control | dose: 100.0 mg/kg/injection, schedule: Q04DX003 (ip), vehicle: saline 95 % of control

S=c1nc(-c2ccccc2)[nH]c(=S)[nH]1
inactive: dose: 100.0 mg/kg/injection, schedule: Q01DX001 (ip), vehicle: Klucel (hydroxypropylcellulose) (HPC) 99 % of control | dose: 200.0 mg/kg/injection, schedule: Q01DX001 (ip), vehicle: Klucel (hydroxypropylcellulose) (HPC) 106 % of control | dose: 400.0 mg/kg/injection, schedule: Q01DX001 (ip), vehicle: Klucel (hydroxypropylcellulose) (HPC) 92 % of control

NS(=O)(=O)c1ccc(NC(=O)c2cccnc2Nc2cccc(Cl)c2)cc1
inactive: [13] 103 % of control | [14] 102 % of control | [15] 101 % of control

C1=C[N-]c2c3c(ccc2=C1)=CC=C[N-]3.O=S(=O)(O)O.[Zn+2]
inactive: dose: 3.12 mg/kg/injection, schedule: Q04DX002 (ip), vehicle: Klucel (hydroxypropylcellulose) (HPC) 108 % of control | dose: 6.25 mg/kg/injection, schedule: Q04DX002 (ip), vehicle: Klucel (hydroxypropylcellulose) (HPC) 100 % of control | dose: 12.5 mg/kg/injection, schedule: Q04DX002 (ip), vehicle: Klucel (hydroxypropylcellulose) (HPC) 109 % of control | dose: 25.0 mg/kg/injection, schedule: Q04DX002 (ip), vehicle: Klucel (hydroxypropylcellulose) (HPC) 111 % of control

CC1(C)N=C(N)N=C(N)N1c1ccc(OCCNC(=O)Nc2ccc(S(=O)(=O)F)cc2)c(Cl)c1
inactive: [12] 120 % of control

CCC1(O)C(=O)OCc2c1cc(-c1ccc(Cl)cc1)nc2OC (centres undefined)
inactive: dose: 12.5 mg/kg/injection, schedule: Q01DX009 (ip), vehicle: distilled water + Tween-80 101 % of control | dose: 25.0 mg/kg/injection, schedule: Q01DX009 (ip), vehicle: distilled water + Tween-80 100 % of control | dose: 50.0 mg/kg/injection, schedule: Q01DX009 (ip), vehicle: distilled water + Tween-80 99 % of control | dose: 100.0 mg/kg/injection, schedule: Q01DX009 (ip), vehicle: distilled water + Tween-80 91 % of control | dose: 200.0 mg/kg/injection, schedule: Q01DX009 (ip), vehicle: distilled water + Tween-80 98 % of control

CN1C(=O)C2CCC(=O)N2C(=S)N(C)C1=S (centres undefined)
inactive: [13] 106 % of control | [14] 104 % of control

COc1cc(OC)c(NC(=S)Nc2cc(Cl)c(OC)cc2OC)cc1Cl
inactive: [16] 106 % of control | [17] 102 % of control | [18] 103 % of control

COc1ccc(NC(=S)N(C)C)cc1
inactive: [19] 95 % of control | [20] 100 % of control | [21] 95 % of control

O=C1c2cc(O)c(O)cc2O[C@H](c2ccc(O)c(O)c2)[C@H]1O
inactive: [17] 120 % of control | [19] 100 % of control | [18] 110 % of control | [20] 100 % of control | dose: 400.0 mg/kg/injection, schedule: Q01DX009 (ip), vehicle: saline with Tween-80 120 % of control | [21] 109 % of control

Cc1nn(-c2ccccc2)c2c1c(=O)c1ccccc1c(=O)n2C
inactive: [9] 105 % of control | [10] 104 % of control | [11] 94 % of control

IC1=CC2CCC(C1)C2 (centres undefined)
inactive: dose: 25.0 mg/kg/injection, schedule: Q01DX009 (ip), vehicle: saline with Tween-80 100 % of control and 103 % of control | [16] 104 % of control and 116 % of control and 93 % of control | [17] 101 % of control and 109 % of control | [18] 102 % of control and 122 % of control and 96 % of control

CCOC(=O)CC1NCCc2c1[nH]c1ccccc21 (centres undefined)
inactive: dose: 6.25 mg/kg/injection, schedule: Q01DX001 (ip), vehicle: saline sonified 90 % of control | dose: 12.5 mg/kg/injection, schedule: Q01DX001 (ip), vehicle: saline sonified 90 % of control | dose: 25.0 mg/kg/injection, schedule: Q01DX001 (ip), vehicle: saline sonified 100 % of control

CCCC(C#N)(CCCl)c1ccccc1 (centres undefined)
inactive: [19] 100 % of control | [20] 104 % of control | [21] 95 % of control

COc1cc(CCCOC2OC(COC3OCC(O)C(O)C3O)C(O)C(O)C2O)cc2cc(-c3ccc4c(c3)OCO4)oc12 (centres undefined)
inactive: dose: 2.34 mg/kg/injection, schedule: Q01DX005 (ip), vehicle: Klucel (hydroxypropylcellulose) (HPC) 95 % of control | dose: 4.68 mg/kg/injection, schedule: Q01DX005 (ip), vehicle: Klucel (hydroxypropylcellulose) (HPC) 94 % of control | dose: 9.37 mg/kg/injection, schedule: Q01DX005 (ip), vehicle: Klucel (hydroxypropylcellulose) (HPC) 98 % of control | dose: 18.75 mg/kg/injection, schedule: Q01DX005 (ip), vehicle: Klucel (hydroxypropylcellulose) (HPC) 94 % of control

c1cc2ccc1CSCCCSCc1ccc(cc1)CSCCCSC2
inactive: dose: 25.0 mg/kg/injection, schedule: Q01DX009 (ip), vehicle: suspension in saline 100 % of control | dose: 50.0 mg/kg/injection, schedule: Q01DX009 (ip), vehicle: suspension in saline 92 % of control | dose: 100.0 mg/kg/injection, schedule: Q01DX009 (ip), vehicle: suspension in saline 98 % of control

Cc1ccc2c(N=Nc3ccc(C(=N)N)cc3)ccc(O)c2n1
inactive: [8] 104 % of control | [9] 113 % of control | [10] 111 % of control | [11] 105 % of control

CCCC(O)(CC)/C(C)=N/O (centres undefined)
inactive: [16] 96 % of control | [17] 91 % of control | [18] 91 % of control

C1=C[N-]c2c3c(ccc2=C1)=CC=C[N-]3.C1=C[N-]c2c3c(ccc2=C1)=CC=C[N-]3.C1=C[N-]c2c3c(ccc2=C1)=CC=C[N-]3.[Co+3].[O-][Cl+3]([O-])([O-])O
inactive: dose: 7.5 mg/kg/injection, schedule: Q01DX005 (ip), vehicle: saline with Tween-80 98 % of control | dose: 15.0 mg/kg/injection, schedule: Q01DX005 (ip), vehicle: saline with Tween-80 98 % of control | dose: 30.0 mg/kg/injection, schedule: Q01DX005 (ip), vehicle: saline with Tween-80 104 % of control

CN(C)CCO/N=C1/CC[C@H]2[C@@H]3CC[C@H]4C[C@H](O)CC[C@]4(C)[C@H]3CC[C@]12C
inactive: [7] 104 % of control | [8] 95 % of control | [9] 95 % of control

CCOC(=O)c1sc(=S)n(CC)c1C
inactive: [1] 107 % of control | [2] 99 % of control

CC1=CC(C)=NC2NNC(=O)C12 (centres undefined)
inactive: [13] 110 % of control | [14] 109 % of control | [15] 105 % of control
